From patent EP0211268B1, “Slow-release topical formulations” (Zappia, Vincenzo, priority 1985, dated 1987)

Assay: equilibrium dialysis test (slow release of minoxidil ion through a dialysis membrane)
Assay type: physicochemical
Details: 10 ml solution containing 0.45 mmoles, pH 4.4, equilibrated through a dialytic barrier with 130 ml of water at pH 4.4
Source text: A direct experimental evidence of the slow-release mechanism, characterizing the minoxidil-polyanion salts, is obtained by dialysis equilibrium tests, as shown in the enclosed Figure. […] If the dialysis solution is substituted, the equilibrium is recovered after dissociation of a further amount of salt. This process mimicks "in vitro" the drug's slow release action at the skin level, characterized by a constant and uniform absorption of the active principle, whose availability in time is provided by the continuous dissociation of the salt.
When the equilibrium conditions are reached at the points marked by the arrows, the equilibrium solution is removed, substituting it with 130 ml of water, till reestablishment of the new equilibrium conditions.

minoxidil found outside the dialysis membrane at equilibrium: about 90%
SMILES: Cl.Nc1cc(N2CCCCC2)nc(N)[n+]1[O-] [minoxidil chloride]
